Results reported in ChEMBL document CHEMBL6083264, “Superacid-Synthesized Fluorinated Diamines Act as Selective hCA IV Inhibitors” (J Med Chem, 2024).

Experiments:
[1] = molecular target: Carbonic anhydrase 12 (Homo sapiens, UniProt O43570)
Description: Inhibition of human CA-XII-catalysed CO2 hydration activity incubated for 15 min by Phenol red dye based assay

[2] = molecular target: T1, Carbonic anhydrase 4 (Homo sapiens, UniProt P22748)
Description: Inhibition of human CA-IV-catalysed CO2 hydration activity incubated for 15 min by Phenol red dye based assay

[3] = molecular target: Carbonic anhydrase 1 (Homo sapiens, UniProt P00915)
Description: Inhibition of human CA-I-catalysed CO2 hydration activity incubated for 15 min by Phenol red dye based assay

[4] = molecular target: Carbonic anhydrase 2 (Homo sapiens, UniProt P00918)
Description: Inhibition of human CA-II-catalysed CO2 hydration activity incubated for 15 min by Phenol red dye based assay

[5] = molecular target: Carbonic anhydrase 9 (Homo sapiens, UniProt Q16790)
Description: Inhibition of human CA-IX-catalysed CO2 hydration activity incubated for 15 min by Phenol red dye based assay

[6] = molecular target: T1, Carbonic anhydrase 4; remark: listed apart in the source
Description: Inhibition of human CA-IV

Sequence of Carbonic anhydrase 1 (P00915 whole entry): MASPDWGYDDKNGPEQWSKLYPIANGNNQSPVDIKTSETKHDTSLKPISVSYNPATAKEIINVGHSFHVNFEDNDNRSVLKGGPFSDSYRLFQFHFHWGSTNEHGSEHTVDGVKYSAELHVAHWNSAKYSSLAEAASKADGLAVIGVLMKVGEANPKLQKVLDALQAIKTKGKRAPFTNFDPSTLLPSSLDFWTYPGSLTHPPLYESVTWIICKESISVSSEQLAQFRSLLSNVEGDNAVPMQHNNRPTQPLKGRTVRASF
Sequence of Carbonic anhydrase 12 (O43570 whole entry): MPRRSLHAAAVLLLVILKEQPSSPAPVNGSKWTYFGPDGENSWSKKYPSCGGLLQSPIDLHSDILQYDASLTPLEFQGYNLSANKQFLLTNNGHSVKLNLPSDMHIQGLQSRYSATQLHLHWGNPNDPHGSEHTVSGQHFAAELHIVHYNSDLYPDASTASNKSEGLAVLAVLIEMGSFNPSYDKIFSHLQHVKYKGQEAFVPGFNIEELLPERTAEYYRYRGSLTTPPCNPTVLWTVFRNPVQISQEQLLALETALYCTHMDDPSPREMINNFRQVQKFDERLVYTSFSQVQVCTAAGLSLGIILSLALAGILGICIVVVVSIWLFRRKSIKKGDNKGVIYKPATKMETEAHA
T1 sequence (P22748 whole entry): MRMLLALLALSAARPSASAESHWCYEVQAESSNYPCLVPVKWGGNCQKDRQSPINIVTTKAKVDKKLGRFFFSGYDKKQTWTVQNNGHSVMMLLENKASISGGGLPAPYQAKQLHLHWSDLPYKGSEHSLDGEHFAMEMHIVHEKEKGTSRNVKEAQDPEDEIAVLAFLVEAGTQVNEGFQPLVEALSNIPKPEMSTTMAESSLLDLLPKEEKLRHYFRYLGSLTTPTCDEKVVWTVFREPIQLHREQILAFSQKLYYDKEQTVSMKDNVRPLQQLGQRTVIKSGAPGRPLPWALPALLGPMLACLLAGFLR

Ki [1] [µM]	Ki [2] [µM]	Ki [3] [µM]	Ki [4] [µM]	Ki [5] [µM]	IC50 [6] [µM]	SMILES
28.6	0.093	> 100	> 100	3.08	–	CCCNCCCCN
52.7	0.095	> 100	> 100	2.95	–	CCCNCCCN
–	> 100	> 100	–	–	–	CC(F)(F)CNCCCCN1C(=O)c2ccccc2C1=O
> 100	–	> 100	–	> 100	–	CC(F)(F)CNCCCN1C(=O)c2ccccc2C1=O
3.65	20.1	> 100	0.79	89	–	CN(CC(F)CN)S(=O)(=O)c1ccc([N+](=O)[O-])cc1 (centres undefined)
0.006	0.074	0.25	0.012	0.026	–	CC(F)CNCCCCN1C(=O)c2ccccc2C1=O (centres undefined)
> 100	0.13	> 100	4.26	> 100	–	CC(F)CNCCCN1C(=O)c2ccccc2C1=O (centres undefined)
> 100	–	> 100	–	–	–	CC(F)(F)CNCCCN
5.2	51.2	> 100	0.72	> 100	–	CC(F)CN(CCCN)S(=O)(=O)c1ccc([N+](=O)[O-])cc1 (centres undefined)
0.68	> 100	3.02	0.026	20	–	O=[N+]([O-])c1ccc(S(=O)(=O)NCC(F)CCl)cc1 (centres undefined)
–	> 100	> 100	> 100	> 100	–	CC(F)(F)CN(CCCCN1C(=O)c2ccccc2C1=O)S(=O)(=O)c1ccc([N+](=O)[O-])cc1
–	0.0177	–	–	–	–	CC(=O)N1N=C(c2ccc(S(N)(=O)=O)cc2)CC1c1c(Cl)cccc1Cl (centres undefined)
–	> 100	> 100	–	> 100	–	CC(F)(F)CN(CCCN1C(=O)c2ccccc2C1=O)S(=O)(=O)c1ccc([N+](=O)[O-])cc1
4.2	0.071	4.5	2.4	2.2	0.071	CC(F)CNS(=O)(=O)c1ccc([N+](=O)[O-])cc1 (centres undefined)
> 100	–	> 100	> 100	–	–	CC(F)(F)CNCCCCN
> 100	> 100	> 100	0.076	> 100	–	O=C1c2ccccc2C(=O)N1CC(F)CNS(=O)(=O)c1ccc([N+](=O)[O-])cc1 (centres undefined)
> 100	> 100	> 100	> 100	> 100	–	CN(CC(F)CCl)S(=O)(=O)c1ccc([N+](=O)[O-])cc1 (centres undefined)
7	> 100	> 100	78.4	> 100	–	CC(F)CN(CCCN1C(=O)c2ccccc2C1=O)S(=O)(=O)c1ccc([N+](=O)[O-])cc1 (centres undefined)
0.64	> 100	> 100	34	> 100	–	CC(F)CN(CCCCN1C(=O)c2ccccc2C1=O)S(=O)(=O)c1ccc([N+](=O)[O-])cc1 (centres undefined)
> 100	> 100	> 100	> 100	> 100	–	CN(CC(F)CN1C(=O)c2ccccc2C1=O)S(=O)(=O)c1ccc([N+](=O)[O-])cc1 (centres undefined)

SMILES	Ki [1] [µM]	Ki [2] [µM]	Ki [3] [µM]	Ki [4] [µM]	Ki [5] [µM]	IC50 [6] [µM]
CC(F)CNCCCN (centres undefined)	> 100	0.034	> 100	36.9	1.44	–
CC(F)CNCCCCN (centres undefined)	> 100	0.028	> 100	63.7	0.38	–
